“Also recorded” adds a separate entry of the source.
Assays:
[1] = molecular target: T1, 11β-hydroxysteroid dehydrogenase (11β-OHSD) (Rattus norvegicus, UniProt P16232); test: Screening of endogenous substances for inhibition of 11β-OHSD (Example III); type: biochemical; settings: endogenous substances screened
Excerpt: (§1) Various endogenous substances which bear similar structural resemblances to glycyrrhetinic acid (GA) were screened for inhibitory activity against 11β-hydroxysteroid dehydrogenase (11β-OHSD) and 5β-reductase (5β-R).

5β-reductase (5β-R) = molecular target: T2, 5β-reductase (5β-R) (Rattus norvegicus, UniProt P31210); test: Screening of endogenous substances for inhibition of 5β-reductase (Example III); type: biochemical; settings: endogenous substances screened
T2 construct: [3H]-aldosterone reduction with NADPH
T2 sequence (P31210 1-326): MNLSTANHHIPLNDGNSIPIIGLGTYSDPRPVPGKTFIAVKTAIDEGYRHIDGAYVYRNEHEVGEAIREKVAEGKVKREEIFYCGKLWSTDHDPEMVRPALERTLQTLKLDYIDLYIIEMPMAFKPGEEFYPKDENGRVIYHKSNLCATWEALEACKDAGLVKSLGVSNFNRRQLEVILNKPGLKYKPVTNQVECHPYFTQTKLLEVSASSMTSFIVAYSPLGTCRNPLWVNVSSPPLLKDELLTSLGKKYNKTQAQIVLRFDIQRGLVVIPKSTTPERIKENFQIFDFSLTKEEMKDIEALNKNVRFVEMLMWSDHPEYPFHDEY
Excerpt: as §1

[2] = molecular target: T1, 11β-hydroxysteroid dehydrogenase (11β-OHSD); settings: incubated with enzyme; cited from earlier work
steroid 5β-reductase = settings: incubated with enzyme; cited from earlier work
[3] = system: adrenalectomized male rats; settings: cited from earlier work
adrenalectomized rats = test: Mineralocorticoid action conferred upon corticosterone in adrenalectomized rats (Example III); type: in vivo
Experimental: 3α,5β-THDOC and bile acids were also treated to determine whether, like GA, they could confer mineralocorticoid (MC) actions upon corticosterone.

T1 sequence (P16232 whole entry): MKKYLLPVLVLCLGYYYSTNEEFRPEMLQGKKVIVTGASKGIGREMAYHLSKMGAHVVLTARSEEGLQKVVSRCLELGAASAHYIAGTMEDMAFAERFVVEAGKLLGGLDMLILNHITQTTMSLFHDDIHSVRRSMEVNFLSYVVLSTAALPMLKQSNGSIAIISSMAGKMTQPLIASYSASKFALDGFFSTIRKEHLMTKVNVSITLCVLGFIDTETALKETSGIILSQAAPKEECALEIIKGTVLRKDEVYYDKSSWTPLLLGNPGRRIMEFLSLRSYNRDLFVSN

| Compound | inhibition of 11β-OHSD (potency in words) [1] | inhibition of 5β-R (potency in words) (5β-reductase (5β-R)) | other results |
| --- | --- | --- | --- |
| C[C@H](CCC(=O)O)[C@H]1CC[C@H]2[C@@H]3CC[C@@H]4C[C@H](O)CC[C@]4(C)[C@H]3CC[C@]12C [LCA, lithocholic acid] | potent inhibitor; also recorded: inhibit both 11β-OHSD and 5β-R activity | weak inhibitors; also recorded: inhibit both 11β-OHSD and 5β-R activity |  |
| CC1(C)[C@@H](O)CC[C@]2(C)[C@H]3C(=O)C=C4[C@@H]5C[C@@](C)(C(=O)O)CC[C@]5(C)CC[C@@]4(C)[C@]3(C)CC[C@@H]12 [Glycyrrhetinic Acid] |  |  | inhibition of 11β-OHSD [2]: markedly inhibit; inhibition of steroid 5β-reductase (steroid 5β-reductase): markedly inhibit |
| C[C@]12CC[C@@H](O)C[C@H]1CC[C@@H]1[C@@H]2CC[C@]2(C)[C@@H](C(=O)CO)CC[C@@H]12 [3α,5β-THDOC, 3α,5β-tetrahydrodeoxycorticosterone] | most potent inhibitor; also recorded: inhibit both 11β-OHSD and 5β-R activity | most potent inhibitor; also recorded: inhibit both 11β-OHSD and 5β-R activity |  |
| C[C@H](CCC(=O)O)[C@H]1CC[C@H]2[C@@H]3[C@H](O)C[C@@H]4C[C@H](O)CC[C@]4(C)[C@H]3C[C@H](O)[C@]12C [CA, cholic acid] | moderate inhibitor | weak inhibitors |  |
| C[C@H](CCC(=O)O)[C@H]1CC[C@H]2[C@@H]3CC[C@@H]4C[C@H](O)CC[C@]4(C)[C@H]3C[C@H](O)[C@]12C [DCA, deoxycholic acid] | weak inhibitor | moderate inhibitor |  |
| CC1(C)[C@@H](OC(=O)CCC(=O)O)CC[C@]2(C)[C@H]3C(=O)C=C4[C@@H]5C[C@@](C)(C(=O)O)CC[C@]5(C)CC[C@@]4(C)[C@]3(C)CC[C@@H]12 [carbenoxolone sodium] |  |  | effect on Na^+ retaining properties of aldosterone and deoxycorticosterone [3]: amplified the Na^+ retaining properties; effect on glucocorticoids corticosterone and cortisol [3]: display minearlocorticoid like activity |
| C[C@H](CCC(=O)O)[C@H]1CC[C@H]2[C@@H]3[C@H](O)C[C@@H]4C[C@H](O)CC[C@]4(C)[C@H]3CC[C@]12C [CDCA, chenodeoxycholic acid] | most potent inhibitor; also recorded: inhibit both 11β-OHSD and 5β-R activity | most potent inhibitor; also recorded: inhibit both 11β-OHSD and 5β-R activity | antinatriuresis caused by corticosterone after pretreatment (adrenalectomized rats; adrenalectomized rats pretreated with CDCA, then corticosterone): significant antinatriuresis |
| CCC[C@@H]1CC2=CC(=O)CC[C@]2(C)[C@H]2CC[C@@]3(C)[C@@H](CC[C@@]3(O)CCC(=O)O)[C@H]12 [RU28318, reference compound] |  |  | effect of antimineralocorticoid on the CDCA/corticosterone antinatriuresis (adrenalectomized rats; adrenalectomized rats, CDCA + corticosterone): blocked |
